Assay results from PMC8308625, “Preclinical Studies in Anti-Trypanosomatidae Drug Development” (Pharmaceuticals, 2021).
Read-outs that look alike come from different tables or passages of the source.

What was measured:
[1] = system: human macrophages; test: Cytotoxicity in human macrophages; type: cell-based; settings: 50 µM
Experimental: Differentiation of THP-1 to produce macrophage-like cells was carried out using phorbol 12-myristate-13-acetate (Sigma-Aldrich, Deisenhofen, Germany).
All assays were performed in triplicate.

[2] = system: J774.1 murine macrophages; test: Nonspecific cytotoxicity in murine macrophages (MTT); settings: Mus musculus, J774.1, read-out: EC50 ± SD MΦ
Experimental: Cell viability was then assessed using the 3-(4,5-dimethylthiazol-2-yl)-2,5-diphenyltetrazolium bromide (MTT) colorimetric assay [1]. […] All assays were performed in triplicate [35].

[3] = system: fibroblasts (NCTC929); test: Cytotoxicity in fibroblasts; type: cell-based; settings: NCTC-929, read-out: EC50 ± SD Fibroblasts
Text: Table 5 Cytotoxicity and selectivity index of reference drugs and selected molecules. | column: EC50 ± SD (µM) ^a / Fibroblasts

[4] = system: T. cruzi; design: method as in PMID 31652542; settings: mice, ref [16], cited from earlier work
[5] = system: T. cruzi; settings: cited from earlier work
[6] = system: Cruzipain; settings: mechanism of action; ref [13],[14],[15]; cited from earlier work
[7] = system: L. amazonensis; test: Growth inhibition of L. amazonensis promastigotes (resazurin); settings: for Selectivity Index MΦ/L. amaz: EC50 mammalian cell line/EC50 L. amazonensis; for EC50: Leishmania amazonensis, read-out: EC50 ± SD L. amaz
[8] = mice, up and down test, cited from earlier work
[9] = system: T. brucei; test: Growth inhibition of T. brucei bloodstream form trypomastigotes (resazurin); type: cell-based, Trypanosoma brucei brucei; settings: for EC50: Trypanosoma brucei, read-out: EC50 ± SD T. brucei
Experimental: Compounds were dissolved in dimethylsulfoxide (DMSO).

[10] = system: L. amazonensis; test: Murine model of cutaneous Leishmaniasis; settings: BALB/c mice, oral
Experimental: For the in vivo model of cutaneous disease, 1 × 10^7 amastigote parasites of L. amazonensis PH8 were inoculated in the upper part of the left paw of the mice. […] The mice were sacrificed 30 days post-infection. The antiparasitic effect was evaluated by two methods: the weekly evolution of the diameter of the infected paw throughout the experiment (Figure 2C) and the quantification of the parasite load in the infected area at the end of the experiment (Figure 2A).
Golden hamsters (Mesocritus auratus) were used to maintain L. amazonensis infections with the parasites passage every 6 to 8 weeks. BALB/c mice (female and male) supplied by the IFFA-CREDO, Lyon, France, and bred at the Instituto de Investigaciones en Ciencias de la Salud, Asuncion, Paraguay, were inoculated in the right hind footpad with 2 × 10^6 L. amazonensis amastigotes in 100 µL PBS obtained from donor hamsters. Disease progression was monitored by the measurement of lesion diameters for 7 to 12 weeks. […] Two days before the administration of the drug, the mice were randomly divided into groups of eight. […] The animals were euthanized two weeks after cessation of treatments to assess parasitological loads in the infected footpad. […] Following incubation at 27 °C for seven days, cultures were examined with an inverted microscope (Olympus, Tokyo, Japan) at a magnification of ×400. The number of parasites per gram in the lesion was calculated by the following equation: Parasite burden = geometric mean of the number of parasites in each duplicate/(number of microscope field counted × weight of lesion × (25,000) hemocytometer correction factor) [37]. […] Comparisons of parasite suppression in the infected footpads of the untreated and drug-treated groups were performed by Student’s t-test. One-way ANOVA (as a non-parametric statistical test) was also used on ranks.

[11] = cited from earlier work
[12] = system: L. braziliensis; settings: read-out: EC50 ± SD L. brazils, cited from earlier work
[13] = Acute oral toxicity (up and down test); settings: mice
[14] = system: L. infantum reference strain (MHOM/BR/2002/LPC-RPV); test: Growth inhibition of L. infantum reference strain promastigotes (resazurin); settings: for Selectivity Index MΦ/Lin–Ref: EC50 mammalian cell line/EC50 L. infantum reference strain; for EC50: Leishmania infantum, read-out: EC50 ± SD Lin–Ref
[15] = system: L. infantum amastigote; test: Single dose study in the amastigote form of L. infantum; type: cell-based; settings: Leishmania infantum, single dose 10 µM
[16] = cited from earlier work; for Ames Test (mutagenicity): ref [13],[14],[15]
[17] = system: human red blood cells; test: Red Blood Cell Lysis Assay; type: cell-based; settings: 50 µM
Experimental: To assess a compound’s hemolytic activity the Red Blood Cell Lysis Assay (national blood bank) was performed. A compound-containing erythrocyte (2% (w/v)) suspension prepared in phosphate-buffered saline pH 7.4 was incubated for 24 h at 37 °C and the amount of hemoglobin released into the supernatant determined spectrophotometrically using a Varioskan TM Flash Multimode Reader (Thermo ScientificTM, MA, USA) set to a wavelength of 405 nm. The % hemolysis was determined using the follows equation: % released hemoglobin = [(A1 − A0)/(A1water)] × 100, where A1 and A0 represent the absorbance at 405 nm of the test sample at 0 and 24 h, and A1water the absorbance at 405 nm of water at 24 h. The experiments were performed by quintuplicate. […]

[18] = design: method as in PMID 24749923, PMID 26492824, PMID 25512408; settings: ref [13],[14],[15]; cited from earlier work
[19] = system: L. infantum veterinary isolate (MCAN_UY_2015_gPL8); test: Growth inhibition of L. infantum veterinary isolate promastigotes (resazurin); settings: for Selectivity Index MΦ/Lin–Vet: EC50 mammalian cell line/EC50 L. infantum veterinary isolate; for EC50: Leishmania infantum, read-out: EC50 ± SD Lin–Vet
[20] = Liver fraction stability (cytosolic and microsomal fraction of rat hepatocytes, TLC); type: in vitro ADME; settings: rat hepatocyte cytosolic and microsomal fractions, 37 °C
Experimental: For the determination of the stability in the different fractions, (cytosolic and microsomal of rat hepatocytes) the different proteins present in them were used. The fractions were prepared according to the previously reported protocol. […] The final concentration of the molecules in the aqueous medium was 400 µM and prepared from a stock in DMSO of 40 mM. The solutions were homogenized and incubated at 37 °C at 10 min, 30 min, 1 h, 2 h, 3 h and 4 h. (by TLC). For this, it was incubated at 37 °C in a volume of 1 mL: 2.5 µL of 30 mM Magnesium Chloride (MgCl); 2.5 µL of 40 mM Nicotinamide Adenosine Dinucleotide Phosphate (NADP+); 5 µL of 350 mM Glucose 6- Phosphate (Glu6P); 5 µL of Glucose 6- phosphate dehydrogenase (Glu6PD) 50 U/mL, 5 µL of the stock of 40 mM compounds and the volume of the Phosphate Buffer (pH = 7) must be such that cytosolic (CF) and microsomal (MF) fraction FC and FM present a final protein concentration of 0.1 mg/mL. After that, the stability of compounds 796 and 1019 in the cytosolic (FCF) and microsomal (FMF) fraction of rat hepatocytes was evaluated at different times (1–4 h). Thin-layer chromatography of ethyl acetate extracts was conducted to evaluate the presence of decomposition products. The mobile phase used for these TLCs was n-hexane: ethyl acetate (7: 3).

[21] = molecular target: T1, Triosephosphate isomerase from T. brucei (TbTIM) (Trypanosoma brucei brucei, UniProt P04789); test: TbTIM inactivation; type: biochemical
T1 construct: made in house; host or cells: Escherichia coli
T1 sequence (P04789 whole entry): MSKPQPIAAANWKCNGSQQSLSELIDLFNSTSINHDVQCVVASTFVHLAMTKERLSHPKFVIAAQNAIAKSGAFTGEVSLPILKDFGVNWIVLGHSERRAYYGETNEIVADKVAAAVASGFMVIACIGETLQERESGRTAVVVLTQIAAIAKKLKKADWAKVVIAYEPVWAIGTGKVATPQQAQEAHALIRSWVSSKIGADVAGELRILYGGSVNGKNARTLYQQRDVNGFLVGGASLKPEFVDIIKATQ
Experimental: (§1) Table S3. Activity of compound 796 in Triosephosphate isomerase from L. mexicana (LmTIM) […]
(§2) Expression and purification of proteins: TbTIM, LmTIM were expressed in Escherichia coli and purified as described in the literature. After purification, the enzyme, disolved in 100 mM triethanolamine, 10 mM EDTA and 1 mM dithiothreitol (pH 8), was precipitated with ammonium sulfate (75% saturation) and stored at 4 _C. Before use, extensive dialysis against 100 mM triethanolamine/10 mM EDTA (pH 7.4) was performed. Protein concentration was determined by absorbance at 280 nm (ε= 36,440 M-1cm-1) TbTIM and LmTIM. Enzymatic activity assays: Enzymatic activity was determined following the conversion of glyceraldehyde 3‐phosphate into dihydroxyacetone phosphate. The decrease in absorbance at 340 nm was followed in a multi‐cell Cary spectrophotometer at 25 °C. The reaction mixture (1 mL, pH 7.4) contained 100 mM triethanolamine, 10 mM EDTA, 0.2 mM NADH, 1 mM glyceraldehyde 3‐phosphate and 0.9 units of _‐glycerol phosphate dehydrogenase. The reaction was initiated by the addition of 5 ng/mL of the TbTIM. For the inhibition studies, TcTIM, LmTIM and TbTIM were incubated at a concentration of 5 mg/mL in a buffer containing 100 mM triethanolamine, 10 mM EDTA, pH 7.4 and 10% of DMSO at 36 _C. The mixture also contained the compounds at the indicated concentrations. Compounds were dissolved in DMSO. […]

[22] = in vivo; settings: male, B6D2F1, mouse, po, 2000 mg/kg
[23] = molecular target: T2, Triosephosphate isomerase from L. mexicana (LmTIM) (Leishmania mexicana, UniProt P48499); test: LmTIM inactivation; type: biochemical
T2 construct: made in house; host or cells: Escherichia coli
T2 sequence (P48499 whole entry): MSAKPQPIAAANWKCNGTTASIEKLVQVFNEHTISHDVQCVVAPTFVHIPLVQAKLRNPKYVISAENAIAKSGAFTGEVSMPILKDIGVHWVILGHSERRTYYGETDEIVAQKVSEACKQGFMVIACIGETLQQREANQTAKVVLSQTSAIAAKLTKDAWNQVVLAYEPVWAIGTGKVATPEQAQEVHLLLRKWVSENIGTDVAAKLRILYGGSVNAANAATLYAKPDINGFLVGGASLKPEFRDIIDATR
Experimental: as §1, §2

[24] = molecular target: triosephosphate isomerase; settings: mechanism of action; ref [13],[14],[15]; cited from earlier work
[25] = Table 4, curcuminoids, ref [14], read-out: EC50 ± SD T. cruzi
[26] = epimastigotes, multiple strains, ref [13],[14],[15], read-out: EC50 in vitro anti-T. cruzi, epimastigotes
[27] = Table 4, curcuminoids, ref [14]

SMILES	cytotoxicity in human macrophages [1]	EC50 [2] [µM]	EC50 [3] [µM]	Selectivity Index MΦ/L. amaz [7]	EC50 [7] [µM]	survival in the acute toxicity model in vivo [13] [%]	Selectivity Index MΦ/Lin–Ref [14]	EC50 [14] [µM]	inhibition at 10 µM [15] [%]	Ames Test (mutagenicity) [16]	cytotoxicity in human red blood cells [17]	Stability in vitro (microsomal, plasma, other solutions) [18]	Selectivity Index MΦ/Lin–Vet [19]	EC50 [19] [µM]	EC50 [5, 25] [µM]	EC50 [5, 26] [µM]	EC50 [12, 27] [µM]	other results
C=CCn1c(C(=O)N2CCN(C/C=C/c3ccccc3)CC2)cs\c1=N/N=C/C=C/c1ccco1 [Compound 314]	did not see any inhibition	30 ± 5	346 ± 9	3	12 ± 5	100	23	1.3 ± 0.5	85	No	did not see any inhibition	High	12	2.5 ± 1	–	–	–	reduction of parasitemia ([4]; oral, same dose as in the Leishmaniasis in vivo assay): more than 60%; survival ([4]; mean 60% survival in untreated group): 100%; EC50 ([5]; Table 3, thiazolidene hydrazines, ref [13],[16],[19],[23],[25], read-out: EC50 ± SD T. cruzi): 3.1 ± 0.2 µM; EC50 ([5]; amastigotes, multiple strains, ref [13],[14],[15], read-out: EC50 in vitro anti-T. cruzi, amastigotes): 0.72 µM; IC50 [6]: 4.3 µM; acute toxicity LD50 ([8]; previously evaluated, ref [13],[16]): > 2000 mg/kg of weight; Acute oral toxicity LD50 ([8]; ref [13],[14],[15]): ^d LD50 > 2000 mg/kg in mice; EC50 ([9]; Table 3, thiazolidene hydrazines): 5 ± 1 µM; leishmanicidal activity in vivo ([10]; half the dose of 796): low; micronucleus test, genotoxicity ([11]; previous works, ref [13],[16]): not genotoxic; Micronucleus test in mice (Genotoxicity) ([11]; ref [13],[14],[15]): No; EC50 ([12]; Table 3, thiazolidene hydrazines, ref [13],[16],[19],[23],[25]): 4 ± 1 µM; AMES test, mutagenic capacity ([16]; previous works, ref [13],[16]): negative
O=C(/C=C/c1cccs1)/C=C/c1cccs1 [Compound 796]	did not see any inhibition	38 ± 7	158 ± 5	5	8 ± 2	100	10	4 ± 0.5	90	–	did not see any inhibition	moderate	4	10 ± 2	5 ± 0.8	5	4 ± 0.5	metabolic stability: time compound detected / degraded [20]: ≥ 4 h; Media Mn/Mouse ± SD (male, CD-1, mouse, in vivo, 150 mg/kg): 5 ± 1; Number EPMn (total polychromatic micronucleated erythrocytes in the 5 assays) (mice, 796 150 mg/kg oral, Cyclophosphamide intraperitoneal positive control, 5000 EPC observed): 21; inhibition at 50 µM [21]: 61%; EC50 ([9]; Table 4, curcuminoids): 0.6 ± 0.1 µM; % of suppression of the parasites ([10]; parasite load in lesion, 796 at 203 µmol/kg, other molecules at half that dose): more than 50%; diameter of the paw ([10]; when treatment begins (Figure 2C)): begins to decrease; LD50 at 14 days [22]: > 2000 mg/kg; inhibition at 50 µM [23]: 42.5%
O=C1/C(=C/C=C/c2ccco2)CCC/C1=C\C=C\c1ccco1 [Compound 1019]	–	–	–	–	7 ± 1	–	–	< 0.3	–	no	–	low	–	–	0.6 ± 0.2	0.6	13 ± 7	IC50 [24]: 0.086 µM; trypanosomicidal effect on T. brucei [9]: no trypanosomicidal effect; growth inhibitory / trypanosomicidal effect on the L. infantum canine-derived isolate [19]: no trypanosomicidal effect
